Measured values from patent US11753373B2, “Protease inhibitors as antivirals” (priority 2021, dated 2023).
Like-named read-outs stand apart in the source and are kept apart here.

Tests used:
[1] = target: SARS-CoV-2 M^pro (3CL protease) (Severe acute respiratory syndrome coronavirus 2 (2019-nCoV) (SARS-CoV-2), UniProt P0DTD1); type: biochemical; conditions: read-out: SARS-CoV-2M^pro inhibition IC50
[2] = type: in vitro ADME, Human; conditions: extraction ratio, compound at 1 uM, human liver microsomes 0.5 mg/mL
Protocol: (§1) Metabolic stability of novel protease inhibitors was determined via liver microsomal stability assay. Human, mouse, SD rat, beagle dog or monkey liver microsomes were incubated with the test compound for 5 to 60 minutes at 37° C., and then the remaining parent compound was quantified by LC-MS/MS. Percentage of the test compound remaining, half-life (t1/2), in vitro intrinsic clearance (CLint, in vitro), in vivo intrinsic clearance (CLint, in vivo), hepatic clearance (CLh) and extraction ratio (ER) were calculated.
(§2) Procedure: The assay was done as described in Baranczewski, P. et al. (2006) Pharmacological Reports 58:453-472; Pearson, P. and Wienkers, L. (2008) Handbook of Drug Metabolism, 2nd Edition. CRC Pres, P.478; and Venkatesh, P. et al. (2007) Biol. Pharm. Bull. 30:1021-2024. 0.625 mg/mL liver microsomes solution was prepared by mixing 2325 μL 100 mM of K-phosphate buffer (pH 7.4) containing 2.5 mM of MgCl2, 1.25 mM of EDTA, and 75 μL microsomes (20 mg/mL) in a vial for each species.
(§3) Positive control compound: (±) Verapamil hydrochloride (Cat No.: V4629; Lot No.: MKBV4993V; Source: Sigma)
(§4) 40 μL aliquots of the liver microsome/test compound mixture were dispensed into 96-well plate in triplicate and pre-warmed the mixture for 5 minutes at 37° C. Then, 10 μL of 5 mM NADPH solution was added to each well to initiate the reaction, and gently mixed. The samples were incubated at 37° C. with gentle shaking.
(§5) For 0-min samples, 200 μL of ACN containing internal standard was added to 40 μL of liver microsome/test compound mixture, followed by addition of 5 mM NADPH, and mixed gently.
(§6) For negative control: 40 μL of liver microsome/test compound mixture was incubated at 37° C. with gentle shaking for 60 minutes, followed by addition of 200 μL ACN containing 1% FA and internal standard and 10 μL of 5 mM NADPH, mixed gently.
(§7) All samples were centrifuged at 4° C. for 20 minutes at 4,000 rpm. Then, 100 μL of the supernatant from each sample was transferred to a new 96-well plate and 100 μL of ultrapure water containing 1% FA was added to each well, and mixed gently. Samples were analyzed by LC-MS/MS.
(§8) Data Analysis: Peak area ratio (Peak Area of test compound/Peak Area of internal standard) was used to represent the concentration of compound in each sample. The remaining percentage (% Remaining) at appointed time points was calculated versus the concentration of compound at 0 min. The Ln value of the remaining percentage was linearly fitted against the incubation time.
(§9) The half-life and clearance were calculated using the following equations:
(§10) Determined percent of the remaining test compound: % remaining=[area at tx/average areas at t0]×100 (1) % metabolized=[100−% remaining] (2)
(§11) Calculated the half-life (t1/2) using the slope (k) of the log-linear regression from the concentration of remaining parent compound versus time (min) relationship: t1/2 (min)=−ln 2/k. (3)
(§12) Clint, in vitro (mL/min/mg) Clint,in vitro=k/c,(c:Liver microsome concentration in the incubation system) (4)
(§13) Hepatic Clearance (CLh) CLh=Clint,in vivo*Hepatic Blood Flow (mL/min/kg)/(Hepatic Blood Flow (mL/min/kg)+Clint,in vivo) (6)
(§14) Extraction ratio (ER): ER=CLint,in vivo/(Qh+CLint,in vivo)*100,Qh:liver blood flow (7)

[3] = type: in vitro ADME; conditions: extraction ratio, compound at 1 uM; for Liver Microsomal Stability (ER) SD rat: SD rat liver microsomes 0.5 mg/mL; for Liver Microsomal Stability (ER) Beagle dog: beagle dog liver microsomes 0.5 mg/mL; for Liver Microsomal Stability (ER) Monkey: monkey liver microsomes 0.5 mg/mL; for Liver Microsomal Stability (ER) Mouse: mouse liver microsomes 0.5 mg/mL
Protocol: as §1, §2, §3
as §4, with “shaking. (Final concentrations: compound=1 μM; liver microsomes protein=0.5 mg/mL; MgCl2=2 mM; EDTA=1 mM; ACN=0.1%; DMSO=0.05%).” for “shaking.”
as §5, §6, §7, §8, §9, §10, §11, §12, §13, §14

[4] = mouse oral PK, female Balb/c, 40 mg/kg single dose; for AUC0-t / Cmax / Tmax / t1/2: plasma
Protocol: Pharmacokinetics of test compounds was evaluated following an oral administration of a single dose (at 40 mg/kg) to female Balb/c mice.
Procedure: Test compounds were administered to Balb/c mice (n=3 per sex per time point) by a single oral gavage. The target dose level for oral administration was 40 mg/kg. Blood samples were collected at pre-dose, and at 0.083, 0.25, 0.50, 1, 2, 4, 6, 8, and 12 hours post-dose. Concentrations of test compound were determined by an LC-MS/MS. Non-compartmental Pharmacokinetic parameters of test compounds were analyzed using Phoenix WinNonlin 8.3.
Animal Dosing: All animals were fasted overnight through approximately 4 hours post-dose. Tap water was provided to mice ad Libitum. The mice were dosed orally at 10.0 ml/kg. The formulation volume of the test compound administered to each animal was calculated based on the body weight measured on the day of dosing.
Sample Collection and Analysis: Approximately 0.20 mL of blood was collected via orbital sinus vein puncture into EDTA-K2 tubes. Plasma samples were harvested by centrifugation and stored at −80° C. until analysis. The analytical method for test compound involved protein precipitation by adding acetonitrile containing 1% FA and internal standard (A-1-a synthesized in house or Tolbutamide purchased from Sigma), and final analysis by LC-MS/MS. A standard curve was prepared using mouse plasma for the test compound. The calibration curve was linear over a concentration range of 1.0 to 1000 ng/mL.
Pharmacokinetic and Statistic Analysis: The reported plasma concentrations of test compounds were used to determine pharmacokinetic parameters, using a non-compartmental model for data analysis (Phoenix WinNonlin 8.3). The common pharmacokinetic parameters were calculated, whenever possible, from the plasma concentration-versus-time data. Nominal doses and sampling times were used, except where deviations were noted. […] BQL after Tmax would not participate in calculation of PK parameters.

SARS-CoV-2 = assay: Anti-viral in vitro PRNT assay in Vero E6 cells; type: cell-based; conditions: Vero E6 cells, 1000 pfu, 3 days, plaque reduction; read-out: anti-SARS-CoV2 (PRNT) in Vero E6 EC50
[5] = wild type Mpro 17 nM, substrate 40 uM

Structure (SMILES)	IC50 [1]	Liver Microsomal Stability (ER) Human [2]	Liver Microsomal Stability (ER) SD rat [3]	Liver Microsomal Stability (ER) Beagle dog [3]	Liver Microsomal Stability (ER) Monkey [3]	Liver Microsomal Stability (ER) Mouse [3]	IC50 [1, 5]	F % (bioavailability) [4]	AUC0-t [4]	Cmax [4]	Tmax [4]	t1/2 [4]	EC50 (SARS-CoV-2)
CC(C)C[C@H](NC(=O)c1cc2c(F)cccc2[nH]1)C(=O)N[C@@H](C[C@@H]1CCNC1=O)C(=O)CCl [Compound A-3-d, (2S)—N-[(2S)-4-chloro-3-oxo-1-[(3S)-2-oxopyrrolidin-3-yl]butan-2-yl]-2-[(4-fluoro-1H-indol-2-yl)formamido]-4-methylpentanamide]	335 nM	0.84	0.77	0.78	0.72	0.58	–	–	–	–	–	–	–
Cc1cccc2[nH]c(C(=O)N[C@@H](CC(C)C)C(=O)N[C@H](C#N)C[C@@H]3CCNC3=O)cc12 [Compound A-4-b]	–	0.02	0.20	0.06	0.43	0.47	172 nM	–	–	–	–	–	–
Cc1cccc2[nH]c(C(=O)N[C@@H](CC(C)C)C(=O)N[C@@H](C[C@@H]3CCNC3=O)C(=O)CCl)cc12 [Compound A-4-c, (2S)—N-[(2S)-4-chloro-3-oxo-1-[(3S)-2-oxopyrrolidin-3-yl]butan-2-yl]-4-methyl-2-[(4-methyl-1H-indol-2-yl)formamido]pentanamide]	1120 nM	0.67	0.70	0.72	0.69	0.81	–	–	–	–	–	–	–
COc1cccc2[nH]c(C(=O)N[C@@H](CC(C)C)C(=O)N[C@@H](C[C@@H]3CCNC3=O)C(=O)CCl)cc12 [Compound A-5-c, (2S)—N-[(2S)-4-chloro-3-oxo-1-[(3S)-2-oxopyrrolidin-3-yl]butan-2-yl]-2-[(4-methoxy-1H-indol-2-yl)formamido]-4-methylpentanamide]	359 nM	0.89	0.74	0.80	0.79	0.84	–	–	–	–	–	–	–
C[C@@H](OC(C)(C)C)[C@H](NC(=O)OCc1ccccc1)C(=O)N[C@@H](CC1CCCCC1)C(=O)N[C@H](C=O)C[C@@H]1CCNC1=O [Compound C-2-b]	–	0.66	0.29	0.48	0.43	0.48	–	5.0%	665.2 ng·h/mL	496 ng/mL	15 min	52.6 min	730 nM
CC(C)(C)[C@H](NC(=O)C(F)(F)F)C(=O)N1C[C@H]2[C@@H]([C@H]1C(=O)N[C@@H](C[C@@H]1CCNC1=O)C(=O)CO)C2(C)C [Compound D-1-c]	–	0.04	0.04	−0.06	–	0.18	–	–	1359 ng·h/mL	410 ng/mL	30 min	174 min	610 nM
CC1(C)[C@@H]2[C@@H](C(=O)N[C@H](C#N)C[C@@H]3CCNC3=O)N(C(=O)[C@@H](NC(=O)C(F)(F)F)C3CC3)C[C@@H]21 [Compound D-2-a]	–	0.05	0.03	−0.04	–	0.13	24 nM	–	–	–	–	–	–
CC(C)C(=O)N[C@H](C(=O)N1C[C@H]2[C@@H]([C@H]1C(=O)N[C@H](C#N)C[C@@H]1CCNC1=O)C2(C)C)C1CC1 [Compound D-2-b]	–	0.08	0.00	0.06	–	0.10	42.5 nM	–	–	–	–	–	–
CC1(C)[C@@H]2[C@@H](C(=O)N[C@H](C#N)C[C@@H]3CCNC3=O)N(C(=O)[C@@H](NC(=O)C3CC3)C3CC3)C[C@@H]21 [Compound D-2-c]	69.7 nM	–	–	–	–	–	–	–	–	–	–	–	–
CC1(C)[C@@H]2[C@@H](C(=O)N[C@H](C#N)C[C@@H]3CCNC3=O)N(C(=O)[C@@H](NC(=O)C(F)F)C3CC3)C[C@@H]21 [Compound D-2-d]	–	0.03	0.05	0.05	–	0.18	58.7 nM	–	–	–	–	–	–
CC1(C)[C@@H]2[C@@H](C(=O)N[C@H](C#N)C[C@@H]3CCCNC3=O)N(C(=O)[C@@H](NC(=O)C(F)F)C3CC3)C[C@@H]21 [Compound D-2-e]	–	0.09	0.04	−0.03	–	0.17	7.02 nM	–	–	–	–	–	–
CC(C)(C)[C@H](NC(=O)C(F)F)C(=O)N1C[C@H]2[C@@H]([C@H]1C(=O)N[C@H](C#N)C[C@@H]1CCNC1=O)C2(C)C [Compound D-3-b]	–	0.01	0.02	−0.01	–	0.26	–	20.2%	3768 ng·h/mL	1190 ng/mL	60 min	112 min	3570 nM
CC(C)C[C@H](NC(=O)c1cc2ccccc2[nH]1)C(=O)N1C[C@H]2[C@@H]([C@H]1C(=O)N[C@H](C#N)C[C@@H]1CCNC1=O)C2(C)C [Compound G-1-b]	–	0.38	0.33	0.33	0.51	0.16	377 nM	–	–	–	–	–	–
CC(C)C[C@H](NC(=O)c1cc2ccccc2[nH]1)C(=O)N1C[C@H]2[C@@H]([C@H]1C(=O)N[C@@H](C#N)C[C@@H]1CCNC1=O)C2(C)C [Compound G-1-c]	–	0.67	0.30	0.30	0.58	0.27	964 nM	–	–	–	–	–	–
CC(C)C[C@H](NC(=O)c1cc2ccccc2[nH]1)C(=O)N1C[C@H]2[C@@H]([C@H]1C(=O)N[C@H](C(=O)CCl)C(C)(C)C)C2(C)C [Compound G-3-c]	–	–	–	–	–	–	> 10000 nM	–	–	–	–	–	–
